Laboratory results from PMC3639963, “A New Class of Small Molecule Inhibitor of BMP Signaling” (PLoS ONE, 2013).

What was measured:
Assay in all cases: Nanosyn kinase profiling
Assay type in all cases: biochemical
Details in all cases: read-out: Percentage inhibition; for inhibition at 0.1 µM: 0.1 µM inhibitor; for inhibition at 1 µM: 1 µM inhibitor
NEK1 = molecular target: T1, NEK1 (Homo sapiens, UniProt Q96PY6)
T1 construct: purchased Nanosyn (enzymatic panel); SGC in-house recombinant human kinases (DSF panel); Invitrogen (ALK1-6)
T1 sequence (Q96PY6 1-1258): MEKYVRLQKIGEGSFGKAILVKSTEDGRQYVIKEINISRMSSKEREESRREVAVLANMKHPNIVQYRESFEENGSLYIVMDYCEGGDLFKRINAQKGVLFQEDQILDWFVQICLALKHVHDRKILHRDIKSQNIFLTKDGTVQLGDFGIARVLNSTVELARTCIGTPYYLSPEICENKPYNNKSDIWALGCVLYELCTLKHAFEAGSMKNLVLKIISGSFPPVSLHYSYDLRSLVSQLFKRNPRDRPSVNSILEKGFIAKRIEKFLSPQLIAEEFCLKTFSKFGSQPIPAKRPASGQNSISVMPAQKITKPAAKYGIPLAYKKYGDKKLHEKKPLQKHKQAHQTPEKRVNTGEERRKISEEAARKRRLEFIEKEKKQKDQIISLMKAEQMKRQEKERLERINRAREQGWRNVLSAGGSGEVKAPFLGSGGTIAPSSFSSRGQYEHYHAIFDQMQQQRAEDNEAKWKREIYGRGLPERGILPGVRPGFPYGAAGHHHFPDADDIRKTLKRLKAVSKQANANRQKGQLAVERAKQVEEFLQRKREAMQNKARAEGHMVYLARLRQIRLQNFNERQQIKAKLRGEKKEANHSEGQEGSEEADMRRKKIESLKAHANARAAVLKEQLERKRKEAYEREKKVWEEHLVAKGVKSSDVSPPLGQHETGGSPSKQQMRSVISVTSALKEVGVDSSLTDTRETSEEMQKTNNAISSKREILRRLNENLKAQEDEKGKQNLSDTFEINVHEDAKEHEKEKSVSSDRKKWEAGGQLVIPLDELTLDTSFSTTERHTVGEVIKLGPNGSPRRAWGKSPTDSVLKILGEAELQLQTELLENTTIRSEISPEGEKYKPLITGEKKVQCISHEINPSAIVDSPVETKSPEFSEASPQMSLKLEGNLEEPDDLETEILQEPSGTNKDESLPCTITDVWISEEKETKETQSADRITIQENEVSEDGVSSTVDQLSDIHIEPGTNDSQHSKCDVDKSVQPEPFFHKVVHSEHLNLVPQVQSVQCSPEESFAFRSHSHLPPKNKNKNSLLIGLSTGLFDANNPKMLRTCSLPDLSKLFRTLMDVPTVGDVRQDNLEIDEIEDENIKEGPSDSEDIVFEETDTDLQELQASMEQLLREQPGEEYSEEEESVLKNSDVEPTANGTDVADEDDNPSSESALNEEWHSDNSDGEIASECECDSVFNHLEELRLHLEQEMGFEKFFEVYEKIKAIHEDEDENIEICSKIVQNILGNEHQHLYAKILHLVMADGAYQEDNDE
Procedure, shortened: (§1)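 Percent inhibition of each kinase was measured with the inhibitor at 0.1 µM and at 1 µM, as part of a 200-kinase human selectivity panel.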

TYK2 = molecular target: T2, TYK2 (Homo sapiens, UniProt P29597)
T2 construct: purchased Nanosyn (enzymatic panel); SGC in-house recombinant human kinases (DSF panel); Invitrogen (ALK1-6)
Procedure, shortened: as §1

PAR1Bα = molecular target: T3, PAR1Bα (Homo sapiens, UniProt Q7KZI7)
T3 construct: purchased Nanosyn (enzymatic panel); SGC in-house recombinant human kinases (DSF panel); Invitrogen (ALK1-6)
Procedure, shortened: as §1

PASK = molecular target: T4, PASK (Homo sapiens, UniProt Q96RG2)
T4 construct: purchased Nanosyn (enzymatic panel); SGC in-house recombinant human kinases (DSF panel); Invitrogen (ALK1-6)
Procedure, shortened: as §1

PAK5 = molecular target: T5, PAK5 (Homo sapiens, UniProt Q9P286)
T5 construct: purchased Nanosyn (enzymatic panel); SGC in-house recombinant human kinases (DSF panel); Invitrogen (ALK1-6)
Procedure, shortened: as §1

TTK = molecular target: T6, TTK (Homo sapiens, UniProt P33981)
T6 construct: purchased Nanosyn (enzymatic panel); SGC in-house recombinant human kinases (DSF panel); Invitrogen (ALK1-6)
T6 sequence (P33981 1-857): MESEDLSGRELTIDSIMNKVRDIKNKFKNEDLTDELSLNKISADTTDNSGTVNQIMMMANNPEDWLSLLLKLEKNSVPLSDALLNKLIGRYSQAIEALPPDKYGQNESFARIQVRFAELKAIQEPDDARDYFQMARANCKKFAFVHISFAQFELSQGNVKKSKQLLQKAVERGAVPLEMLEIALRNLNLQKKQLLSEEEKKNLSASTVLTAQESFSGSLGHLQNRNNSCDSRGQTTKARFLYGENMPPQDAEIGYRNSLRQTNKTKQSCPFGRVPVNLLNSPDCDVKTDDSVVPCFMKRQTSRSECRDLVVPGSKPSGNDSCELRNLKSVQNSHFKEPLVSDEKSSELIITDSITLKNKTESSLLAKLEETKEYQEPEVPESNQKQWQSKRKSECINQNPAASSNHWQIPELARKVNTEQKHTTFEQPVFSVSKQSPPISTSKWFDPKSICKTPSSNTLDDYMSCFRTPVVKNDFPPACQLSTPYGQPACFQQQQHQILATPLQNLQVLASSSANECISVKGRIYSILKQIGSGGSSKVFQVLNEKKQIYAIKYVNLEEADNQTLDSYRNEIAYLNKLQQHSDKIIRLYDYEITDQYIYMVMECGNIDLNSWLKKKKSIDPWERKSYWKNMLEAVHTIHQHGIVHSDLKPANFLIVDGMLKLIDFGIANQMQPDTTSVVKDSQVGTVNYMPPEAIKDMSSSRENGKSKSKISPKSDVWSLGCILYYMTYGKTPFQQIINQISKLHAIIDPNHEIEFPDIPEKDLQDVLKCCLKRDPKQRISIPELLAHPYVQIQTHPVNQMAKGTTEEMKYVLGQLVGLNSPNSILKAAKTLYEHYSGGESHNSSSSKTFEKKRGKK
Procedure, shortened: as §1

T4 sequence (Q96RG2 whole entry): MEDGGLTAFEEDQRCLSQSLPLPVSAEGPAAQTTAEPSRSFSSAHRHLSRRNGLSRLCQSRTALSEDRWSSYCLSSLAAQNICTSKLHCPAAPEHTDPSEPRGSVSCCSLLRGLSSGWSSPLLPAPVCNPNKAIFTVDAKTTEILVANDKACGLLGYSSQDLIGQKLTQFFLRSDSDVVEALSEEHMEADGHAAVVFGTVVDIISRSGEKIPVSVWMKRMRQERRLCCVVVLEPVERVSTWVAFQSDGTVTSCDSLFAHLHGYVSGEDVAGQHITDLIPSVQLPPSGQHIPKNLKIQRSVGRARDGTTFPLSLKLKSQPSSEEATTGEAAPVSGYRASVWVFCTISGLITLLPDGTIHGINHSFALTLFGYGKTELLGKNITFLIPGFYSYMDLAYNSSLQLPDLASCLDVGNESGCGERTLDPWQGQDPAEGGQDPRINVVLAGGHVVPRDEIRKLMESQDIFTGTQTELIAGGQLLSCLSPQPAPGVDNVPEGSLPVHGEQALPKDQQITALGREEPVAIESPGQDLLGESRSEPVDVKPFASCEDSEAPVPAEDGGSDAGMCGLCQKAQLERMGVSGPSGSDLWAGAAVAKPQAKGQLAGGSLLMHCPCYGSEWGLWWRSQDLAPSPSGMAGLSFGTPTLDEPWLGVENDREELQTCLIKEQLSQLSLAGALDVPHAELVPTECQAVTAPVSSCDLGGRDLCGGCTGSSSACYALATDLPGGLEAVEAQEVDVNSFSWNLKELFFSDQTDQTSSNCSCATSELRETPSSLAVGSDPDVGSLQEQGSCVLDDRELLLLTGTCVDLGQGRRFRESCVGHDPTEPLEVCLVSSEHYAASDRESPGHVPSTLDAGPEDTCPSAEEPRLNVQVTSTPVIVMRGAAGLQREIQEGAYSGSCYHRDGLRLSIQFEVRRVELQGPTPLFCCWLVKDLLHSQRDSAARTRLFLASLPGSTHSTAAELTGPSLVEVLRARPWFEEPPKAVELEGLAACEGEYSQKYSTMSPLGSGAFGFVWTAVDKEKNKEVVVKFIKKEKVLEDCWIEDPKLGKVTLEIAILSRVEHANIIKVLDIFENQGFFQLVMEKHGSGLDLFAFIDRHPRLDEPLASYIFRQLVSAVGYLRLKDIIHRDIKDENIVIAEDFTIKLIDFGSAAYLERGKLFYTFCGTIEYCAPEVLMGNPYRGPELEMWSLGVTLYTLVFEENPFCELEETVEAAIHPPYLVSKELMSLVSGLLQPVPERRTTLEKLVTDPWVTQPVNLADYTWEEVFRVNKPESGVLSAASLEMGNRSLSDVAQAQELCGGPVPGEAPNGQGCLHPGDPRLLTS
T2 sequence (P29597 whole entry): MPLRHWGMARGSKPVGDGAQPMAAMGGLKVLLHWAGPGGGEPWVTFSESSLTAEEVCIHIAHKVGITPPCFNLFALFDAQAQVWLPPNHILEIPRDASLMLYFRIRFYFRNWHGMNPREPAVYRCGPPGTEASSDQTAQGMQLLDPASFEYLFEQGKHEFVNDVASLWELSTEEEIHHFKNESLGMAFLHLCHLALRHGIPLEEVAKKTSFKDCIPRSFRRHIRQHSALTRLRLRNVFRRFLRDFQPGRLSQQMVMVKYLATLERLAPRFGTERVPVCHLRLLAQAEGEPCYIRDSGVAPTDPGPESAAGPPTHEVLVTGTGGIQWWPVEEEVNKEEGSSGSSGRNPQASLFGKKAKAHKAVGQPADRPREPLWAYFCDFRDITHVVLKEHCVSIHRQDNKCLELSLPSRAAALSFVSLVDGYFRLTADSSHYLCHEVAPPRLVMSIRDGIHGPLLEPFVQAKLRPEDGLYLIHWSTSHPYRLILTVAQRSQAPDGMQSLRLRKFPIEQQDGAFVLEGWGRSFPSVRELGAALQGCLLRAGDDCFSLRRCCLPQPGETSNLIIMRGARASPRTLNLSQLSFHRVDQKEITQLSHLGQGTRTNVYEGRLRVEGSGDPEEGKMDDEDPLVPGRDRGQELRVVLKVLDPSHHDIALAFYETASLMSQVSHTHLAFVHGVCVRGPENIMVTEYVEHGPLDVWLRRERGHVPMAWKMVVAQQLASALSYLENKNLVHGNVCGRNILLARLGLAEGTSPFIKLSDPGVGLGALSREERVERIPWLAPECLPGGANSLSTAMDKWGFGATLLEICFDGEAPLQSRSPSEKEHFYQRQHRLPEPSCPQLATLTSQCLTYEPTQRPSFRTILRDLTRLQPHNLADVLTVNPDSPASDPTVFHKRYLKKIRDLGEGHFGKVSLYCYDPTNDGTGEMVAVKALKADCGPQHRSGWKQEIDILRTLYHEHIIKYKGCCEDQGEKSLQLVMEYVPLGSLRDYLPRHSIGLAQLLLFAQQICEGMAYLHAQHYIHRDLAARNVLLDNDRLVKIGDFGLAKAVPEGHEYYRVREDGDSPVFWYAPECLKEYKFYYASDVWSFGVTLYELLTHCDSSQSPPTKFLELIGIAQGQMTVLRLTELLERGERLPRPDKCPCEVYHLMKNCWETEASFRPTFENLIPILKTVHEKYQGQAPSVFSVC
T5 sequence (Q9P286 whole entry): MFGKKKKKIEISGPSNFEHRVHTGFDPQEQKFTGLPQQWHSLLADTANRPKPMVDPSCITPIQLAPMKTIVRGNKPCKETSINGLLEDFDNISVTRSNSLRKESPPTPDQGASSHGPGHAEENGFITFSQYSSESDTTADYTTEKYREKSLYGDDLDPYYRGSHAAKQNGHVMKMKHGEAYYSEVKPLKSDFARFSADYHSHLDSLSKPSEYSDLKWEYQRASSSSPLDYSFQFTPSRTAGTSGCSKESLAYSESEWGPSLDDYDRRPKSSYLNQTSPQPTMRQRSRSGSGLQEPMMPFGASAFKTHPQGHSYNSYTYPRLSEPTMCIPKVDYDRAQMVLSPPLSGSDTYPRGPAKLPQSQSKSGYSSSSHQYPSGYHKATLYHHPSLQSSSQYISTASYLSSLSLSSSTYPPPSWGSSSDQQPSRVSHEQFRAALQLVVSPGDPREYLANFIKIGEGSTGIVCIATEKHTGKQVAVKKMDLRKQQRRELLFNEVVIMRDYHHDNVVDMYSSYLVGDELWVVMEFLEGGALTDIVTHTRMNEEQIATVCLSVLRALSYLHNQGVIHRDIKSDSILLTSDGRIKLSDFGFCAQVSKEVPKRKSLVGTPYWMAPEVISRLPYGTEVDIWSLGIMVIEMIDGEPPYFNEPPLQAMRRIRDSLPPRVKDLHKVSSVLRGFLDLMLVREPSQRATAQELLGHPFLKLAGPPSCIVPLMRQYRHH
T3 sequence (Q7KZI7 1-725 isoform Q7KZI7-4): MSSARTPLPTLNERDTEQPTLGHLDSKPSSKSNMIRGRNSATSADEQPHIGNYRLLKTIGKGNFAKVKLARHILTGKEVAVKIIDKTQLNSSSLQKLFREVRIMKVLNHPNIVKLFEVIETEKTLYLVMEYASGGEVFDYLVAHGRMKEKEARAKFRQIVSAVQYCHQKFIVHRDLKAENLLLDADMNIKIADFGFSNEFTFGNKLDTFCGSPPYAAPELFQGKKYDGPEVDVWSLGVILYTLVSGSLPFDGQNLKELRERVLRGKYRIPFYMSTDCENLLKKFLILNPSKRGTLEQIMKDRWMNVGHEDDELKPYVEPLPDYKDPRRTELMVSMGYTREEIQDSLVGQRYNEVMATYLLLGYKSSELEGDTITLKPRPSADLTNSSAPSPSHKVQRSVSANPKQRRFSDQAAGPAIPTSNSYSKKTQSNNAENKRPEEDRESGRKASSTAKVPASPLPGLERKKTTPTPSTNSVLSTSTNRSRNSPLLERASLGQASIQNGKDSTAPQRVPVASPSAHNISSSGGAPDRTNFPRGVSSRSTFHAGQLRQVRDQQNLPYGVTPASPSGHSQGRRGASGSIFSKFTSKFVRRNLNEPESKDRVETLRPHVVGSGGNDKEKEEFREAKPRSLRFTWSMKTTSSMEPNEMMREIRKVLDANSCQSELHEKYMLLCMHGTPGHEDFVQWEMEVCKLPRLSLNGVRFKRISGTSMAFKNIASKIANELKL

SMILES	inhibition at 0.1 µM (NEK1) [%]	inhibition at 1 µM (NEK1) [%]	inhibition at 0.1 µM (TYK2) [%]	inhibition at 1 µM (TYK2) [%]	inhibition at 0.1 µM (PAR1Bα) [%]	inhibition at 1 µM (PAR1Bα) [%]	inhibition at 0.1 µM (PASK) [%]	inhibition at 1 µM (PASK) [%]	inhibition at 0.1 µM (PAK5) [%]	inhibition at 1 µM (PAK5) [%]	inhibition at 0.1 µM (TTK) [%]	inhibition at 1 µM (TTK) [%]
COc1cc(-c2cc(-c3cccc(O)c3)cnc2N)cc(OC)c1OC [K02288, 3-[6-amino-5-(3,4,5-trimethoxy-phenyl)-pyridin-3-yl]-phenol]	-1	0.8	0	1.8	2.3	7	1.1	0.6	-1	-1	-4	-1
c1ccc2c(-c3cnn4cc(-c5ccc(N6CCNCC6)cc5)cnc34)ccnc2c1 [LDN-193189]	2.1	3.4	-1	-2	6.9	43	1.9	1.4	6.2	8.5	4.5	7.6
